Results taken from ChEMBL document CHEMBL5724558, “Image-based profiling of drug vulnerabilities in CRC organoids” (2024).
Values joined by “and” are separate entries in the source; they are usually repeats but may differ in a detail not shown here. Identical values can stand only once. Square brackets hold non-standard residues; d marks the D form. Peptide text beside a SMILES is read from it. Arg(Me) = CNC(=N)NCCC[C@H](N)C(=O)O; d3Pal = N[C@H](Cc1cccnc1)C(=O)O; azaGly = NNC(=O)O

Tests used:
Assay type in all cases: functional, Homo sapiens
Design in all cases: dose or concentration left out as unconfirmed
Colon cancer organoid [1] = experiment: (§1) Image-based profiling of donated chemical probes and chemogenomic kinase set in O09 CRC organoid. Image analysis is performed on the sum area metric, and the data were normalized to the DMSO control. After imaging the organoid viability is measured using the OneGloEX Luciferase Assay System. The normalized viability data and sum area are reported.
Colon cancer organoid [2] = experiment: as §1, with “O06” for “O09”
Colon cancer organoid [3] = experiment: as §1, with “O21” for “O09”

Compound | Cell Viability (Colon cancer organoid [1]; Replication number 1) | Cell Viability (Colon cancer organoid [1]; Replication number 2) | Cell Viability (Colon cancer organoid [2]; Replication number 1) | Cell Viability (Colon cancer organoid [2]; Replication number 2) | Cell Viability (Colon cancer organoid [3]; Replication number 1) | Cell Viability (Colon cancer organoid [3]; Replication number 2)
CC(=O)Nc1ncc(CN2CCC[C@H](Cc3cc(C)nc(C)c3)C2)s1 [JNJ-65355394] | 144.44% and 104.679% | 146.748% and 114.826% | 89.0088% and 111.578% | 103.026% and 113.793% | 79.2381% and 103.709% | 88.6271% and 113.344%
Nc1nc(NCc2ccccc2)nc(-c2cccc(CO)c2)n1 [ZINC32547799] | 98.3992% and 98.4744% | 101.098% and 100.714% | 89.5578% and 102.51% | 72.3824% and 71.8405% | 95.0079% and 87.3045% | 101.984% and 101.971%
Cn1cc(CCn2cnc(-c3cnn(C)c3)c2-c2ccc(C#N)cc2)cn1 | 104.672% and 93.4312% | 96.0156% and 86.9496% | 175.784% and 127.57% | 222.733% and 136.219% | 99.776% and 95.2319% | 89.4066% and 104.177%
NS(=O)(=O)c1cc(NC(=O)C2(c3ccccc3Cl)CC2)ccc1Oc1cccc(Cl)c1 [BAY-207] | 172.466% and 128.537% | 110.661% and 134.648% | 85.045% and 103.044% | 47.3713% and 82.6769% | 111.619% and 128.655% | 96.7656% and 94.898%
Cc1cc(CN)cc(C)c1-c1ncn(C)c1-c1ccnc2cc(F)ccc12.Cl | 165.285% and 103.632% | 176.587% and 123.725% | 218.867% and 141.584% | 205.957% and 111.843% | 125.215% and 107.577% | 113.008% and 89.6778%
CCNC(=O)c1cc2c(N3CCOCC3C)ccnc2[nH]1 (stereo not given) | 68.1497% and 105.84% | 64.0482% and 77.4005% | 98.3654% and 112.881% | 119.727% and 97.8383% | 130.503% and 111.772% | 91.1701% and 91.3265%
CCC(F)(F)c1cc(N2CCC(S(C)(=O)=O)CC2)nc2sc(C(N)=O)c(N)c12 [BI-605906] | 110.631% and 99.0371% | 105.468% and 104.877% | 130.001% and 116.599% | 81.7833% and 117.011% | 102.215% and 104.22% | 98.7028% and 111.659%
CC1=C(C#N)C(c2ccc3c(c2)c(NC(=O)c2ccccc2C)nn3C)C(C#N)=C(C)N1 [BAY-974] | 82.726% and 84.3377% | 101.367% and 119.752% | 84.6822% and 93.2084% | 111.085% and 112.763% | 90.5008% and 96.0543% | 89.8417% and 122.959%
Cn1nc(C(=O)NCc2ccc(C(=O)O)cc2)cc1-c1ccc2[nH]ccc2c1 [BI 4395] | 118.116% and 98.6727% | 113.973% and 124.717% | 93.2096% and 84.0749% | 51.0154% and 42.4045% | 90.5249% and 84.9935% | 78.9736% and 83.6735%
COc1ncc(-c2ccc3nccc(-c4ccnnc4)c3c2)cc1NS(=O)(=O)c1ccc(F)cc1F [OMIPALISIB] | 14.1746% and 4.189% | 12.1613% and 4.9671% | 2.947% and 9.014% | 1.718% and 5.799% | 14.5309% and 34.1185% | 
CC1=C(C)C(=O)C(C(C)(C)CC(=O)N(CCCCSC[C@H]2O[C@@H](n3cnc4c(N)ncnc43)[C@@H]3OC(C)(C)O[C@@H]32)Cc2cccc(-c3ccc(Cl)cc3)c2)=C(C)C1=O | 93.185% and 86.476% | 68.1346% and 85.8093% | 141.238% and 103.893% | 153.713% and 129.049% | 97.336% and 122.861% | 82.8638% and 97.7327%
CN1CCN(c2cnc3c(C4CCN(C(=O)c5ccc(OC(F)(F)F)cc5N)CC4)ncnc3c2)CC1 [BAY-885] | 40.0205% and 84.5942% | 66.5359% and 88.2236% | 84.7491% and 99.8381% | 93.9717% and 91.062% | 131.298% and 119.498% | 99.2561% and 98.9123%
COc1cccc2c1c(O)c(C(=O)N(C)c1ccc(C(F)(F)F)cc1)c(=O)n2C [TASQUINIMOD] | 111.782% and 95.2859% | 96.4426% and 87.5198% | 48.5879% and 75.1409% | 109.678% and 108.736% | 88.1859% and 108.165% | 81.4636% and 102.566%
Cc1cc(CN)cc(C)c1-c1ncn(C)c1-c1cncn1C | 189.71% and 98.9954% | 198.722% and 106.905% | 108.725% and 89.8792% | 171.9% and 107.541% | 118.759% and 94.0562% | 98.6287% and 80.0119%
CN(C)CCCOc1ccc(-c2cc(NCCCn3cccn3)nc(S(C)(=O)=O)n2)cc1 | 107.413% and 76.7388% | 121.884% and 89.5154% | 164.335% and 134.819% | 201.31% and 140.998% | 93.735% and 87.002% | 96.544% and 91.8258%
CNC(=O)c1cc(C(=O)N[C@H]2[C@@H]3COC[C@@H]32)cc2c1O[C@H](CF)[C@H]2c1ccccc1 [GSK973] | 33.6063% and 74.8406% | 64.0142% and 82.8707% | 85.8672% and 112.47% | 108.347% and 115.089% | 110.582% and 117.861% | 99.9706% and 95.8532%
Cl.Cl.NC1(c2ccc(-c3nc4ccn5c(=O)[nH]nc5c4cc3-c3ccccc3)cc2)CCC1 | 47.4878% and 37.8628% | 66.6317% and 37.3678% | 82.4513% and 94.6892% | 74.7027% and 107.425% | 81.7246% and 91.8083% | 79.6922% and 92.9418%
Cc1ccccc1Oc1cc(-n2c(=O)cc(C(F)(F)F)[nH]c2=O)c2ccccc2c1Cl [BAY-069] | 112.474% and 107.103% | 148.882% and 102.498% | 107.213% and 122.915% | 117.719% and 113.888% | 99.7794% and 121.135% | 101.27% and 93.8137%
CNC(=N)NCCC[C@H](NC(=O)[C@H](CC(C)C)NC(=O)NNC(=O)[C@H](Cc1ccccc1)NC(=O)[C@H](CO)NC(=O)[C@H](CC(N)=O)NC(=O)[C@@H](Cc1cccnc1)NC(=O)[C@H](N)Cc1ccc(O)cc1)C(=O)NCC(N)=O [KISS1-543] (H-[dY][d3Pal]NSF[azaGly]L[Arg(Me)]G-NH2) | 107.101% and 81.2318% | 83.0393% and 106.024% | 118.716% and 117.33% | 90.7753% and 88.3624% | 119.966% and 118.758% | 94.392% and 98.4694%
Cc1cccc(-c2cnc3occ(-c4ccc(C(=O)O)c(C5CCCC5)c4)c3c2)c1 | 143.367% and 90.8211% | 122.111% and 97.0079% | 91.6718% and 109.086% | 100.62% and 106.871% | 122.241% and 115.611% | 124.793% and 91.2416%
CCn1cc(-c2cccc(C(F)(F)F)c2)c2sc(C(=N)NC3CCS(=O)(=O)CC3)cc2c1=O | 136.882% and 100.386% | 86.2111% and 86.0944% | 179.562% and 135.302% | 139.17% and 96.3091% | 121.201% and 130.503% | 111.866% and 107.936%
CCCS(=O)(=O)c1nc(NC2CC2)cc(-c2ccc3c(ccn3C3CC(C)(C)NC(C)(C)C3)c2)n1 | 90.8161% and 100.386% | 72.9195% and 100.634% | 33.8005% and 71.7584% | 41.5782% and 52.8147% | 108.157% and 124.037% | 90.7114% and 110.084%
CC[C@H](CC(=O)O)n1c(=O)c2ncccc2n(Cc2cn(C)c3cc(C)cc(C)c23)c1=O [BI-1942] | 76.1388% and 88.7208% | 109.791% and 100.317% | 122.43% and 127.53% | 114.507% and 111.004% | 98.903% and 90.5784% | 95.5994% and 107.07%
Cl.O=C([C@@H](Cc1cccc(C(F)(F)F)c1)NS(=O)(=O)c1cc(F)c2c(c1)CCNC2)N1CCCC1 | 80.2483% and 102.241% | 101.188% and 101.204% | 106.357% and 105.584% | 187.159% and 130.005% | 76.7615% and 83.4749% | 81.6272% and 85.3819%
CC1=C(C)C(=O)C(C(C)(C)CC(=O)N(CCCCSC[C@H]2O[C@@H](n3cnc4c(N)ncnc43)[C@H](O)[C@@H]2O)Cc2cccc(-c3ccc(Cl)cc3)c2)=C(C)C1=O | 154.166% and 104.56% | 134.087% and 102.344% | 167.397% and 142.309% | 129.695% and 107.541% | 85.391% and 116.982% | 82.6503% and 80.5489%
Cc1ccc2nc(NCCN)c3ncc(C)n3c2c1.O=C(O)C(F)(F)F.O=C(O)C(F)(F)F | 111% and 93.003% | 101.477% and 77.7459% | 119.625% and 106.83% | 110.324% and 90.8997% | 135.691% and 125.993% | 139.56% and 141.634%
